Source: patent US20050009772A1, “Methods and compositions for the treatment of glaucoma and other retinal diseases” (The Regents of the University of California, priority 2003, published 2005)
Entries after “also recorded” stand apart in the source; their conditions may differ.

Test system: HSC70
Experiment: Western blot for HSC70 in enriched RGC fraction after systemic administration of GGA (Experiment 1)
Format: in vivo, rat
Conditions: GGA 200 mg/kg daily i.p. 1, 3, 7 days vs control groups
Method: Three experiments are summarized here, and details are provided in the subsequent sections. […] For Western blotting, twelve rats were equally divided into 6 groups. […] Enriched RGC fraction was harvested from 2 retinas of each group and used for Western blot analysis. The same experiment for isolation of RGCs and Western blotting was repeated with the other 2 retinas-from each group.
GGA was a gift from Esai Co, Ltd (Tokyo, Japan). […] Saline-vehicle was prepared and administered in the same fashion in vehicle-treated control groups.
A previously described method was modified to partially purify RGCs from other retinal cells in rat retinas.38 Briefly, two dissected rat retinas from each subgroup were washed in 2.5 ml of calcium- and magnesium-free phosphate buffered saline (PBS) at pH 7.4, and incubated in 1.25 ml of PBS containing 0.5 mg/ml trypsin and 0.01% deoxyribonuclease for 15 minutes at 37° C. […] The cells were then resuspended in 400 μl of MEM buffer, and the protein concentration in the cell suspension was measured with a bicinchoninic acid (BCA) protein assay kit (Pierce, Rockford, Ill.).
The membrane was blocked by incubation in 0.1% Tween-20 in 100 mM Tris-buffered saline containing 10% nonfat dried milk for 1 hour. […] The immunoreactive bands were detected by chemiluminescence with an enhanced chemiluminescence Western blot reagent (Amersham Pharmacia).

Substance: Geranylgeranylacetone [GGA]
- immunoreactivity against HSC70 in RGCs (immunoblot): no change in HSC70 expression; also recorded: no detectable difference
